These results are taken from ChEMBL document CHEMBL1147669, “Synthesis of biphenyltrienes as probes for beta-amyloid plaques” (J Med Chem, 2006).

The target in assay [1] is T1, Amyloid-beta precursor protein (Homo sapiens, UniProt P05067). Nature of the assay: Displacement of [125I]2-(4'-dimethylaminophenyl)-6-iodoimidazo[1,2-a]pyridine from beta amyloid peptide in brain tissue at 50 uL. The assay is classed as tissue-based. On the technique in general: Displacement assays read how much labelled ligand stays bound in the presence of the test substance.

In assay [2] the target is T1, Amyloid-beta precursor protein. Nature of the assay: Displacement of [125I](E,E)-1-iodo-2,5-bis-(3-hydroxycarbonyl-4-methoxy)styrylbenzene from beta amyloid peptide in brain tissue at 50 uL. The assay is classed as tissue-based.

T1 sequence (P05067 whole entry): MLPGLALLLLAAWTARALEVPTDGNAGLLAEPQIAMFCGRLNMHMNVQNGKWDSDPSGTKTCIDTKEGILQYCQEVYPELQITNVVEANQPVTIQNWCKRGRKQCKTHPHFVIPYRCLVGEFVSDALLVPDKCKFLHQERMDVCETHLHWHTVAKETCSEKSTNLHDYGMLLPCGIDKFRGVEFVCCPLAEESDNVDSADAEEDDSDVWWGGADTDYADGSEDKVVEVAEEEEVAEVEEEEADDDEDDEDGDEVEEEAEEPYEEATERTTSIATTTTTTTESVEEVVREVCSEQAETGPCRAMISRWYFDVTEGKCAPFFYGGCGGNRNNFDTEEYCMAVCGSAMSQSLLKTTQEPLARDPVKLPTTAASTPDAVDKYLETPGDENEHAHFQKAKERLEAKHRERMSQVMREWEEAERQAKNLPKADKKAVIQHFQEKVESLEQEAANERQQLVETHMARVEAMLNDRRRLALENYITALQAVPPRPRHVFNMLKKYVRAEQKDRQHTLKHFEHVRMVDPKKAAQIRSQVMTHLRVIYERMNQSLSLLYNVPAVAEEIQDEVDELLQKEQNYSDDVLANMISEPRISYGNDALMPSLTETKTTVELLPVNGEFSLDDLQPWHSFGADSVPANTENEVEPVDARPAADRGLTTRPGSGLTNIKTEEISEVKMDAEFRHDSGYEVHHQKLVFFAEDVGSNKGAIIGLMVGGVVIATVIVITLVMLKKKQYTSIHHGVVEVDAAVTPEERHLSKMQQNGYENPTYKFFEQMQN

As usually defined, the Ki is the dissociation constant of the complex between target and ligand, obtained from inhibition or displacement. Consider `CN(C)c1ccc(/C=C/C=C/C=C/c2ccc(N(C)C)cc2)cc1`, for which the Ki was 837 nM in assay [1] and more than 7000 nM in assay [2].

In the case of `O=[N+]([O-])c1ccc(/C=C/C=C/C=C/c2ccc([N+](=O)[O-])cc2)cc1`, the values for the Ki in assay [1] and in assay [2] were 500 nM and more than 4000 nM, respectively.

Turning to `COc1ccc(/C=C/c2ccc(/C=C/c3ccc(OC)c(C(=O)O)c3)c(I)c2)cc1C(=O)O`, the figures for the Ki in assay [1] and in assay [2] were more than 1000 nM and 5.1 nM, respectively.

On to `CNc1ccc(/C=C/C=C/C=C/c2ccc(NC)cc2)cc1`, for which the inhibition constant Ki came to 7.5 nM in assay [1] and 122 nM in assay [2].

As for `Nc1ccc(/C=C/C=C/C=C/c2ccc(N)cc2)cc1`, the values for the Ki in assay [1] and in assay [2] were 9 nM and 375 nM, respectively.

On to `CC(=C(C#N)C#N)c1ccc2cc(N(C)CCF)ccc2c1`, for which the Ki in assay [1] was 152 nM; in assay [2], more than 8000 nM.

For the compound `Oc1ccc(/C=C/C=C/C=C/c2ccc(O)cc2)cc1`, the inhibitory constant (Ki) in assay [1] came to 9 nM; in assay [2], 150 nM.

Regarding `Nc1ccc(/C=C/C=C/C=C/c2ccc(NCCF)cc2)cc1`, the inhibitory constant (Ki) in assay [1] came to 12 nM; in assay [2] it was 217 nM.

Consider `COc1ccc(/C=C/C=C/C=C/c2ccc(OC)cc2)cc1`, for which the Ki in assay [1] was more than 4000 nM; in assay [2], more than 8000 nM.
